Experimental data: paper PMC11258682, “Mechanoresponsive Protein Crystals for NADH Recycling in Multicycle Enzyme Reactions” (Journal of the American Chemical Society, 2024)

Molecular target: Cry3Aa (Bacillus thuringiensis, UniProt P0A379)
Settings: solid crystals, non-specific electrostatic adsorption likely; no PEI

Sequence of Cry3Aa (P0A379 58-644 limits assumed): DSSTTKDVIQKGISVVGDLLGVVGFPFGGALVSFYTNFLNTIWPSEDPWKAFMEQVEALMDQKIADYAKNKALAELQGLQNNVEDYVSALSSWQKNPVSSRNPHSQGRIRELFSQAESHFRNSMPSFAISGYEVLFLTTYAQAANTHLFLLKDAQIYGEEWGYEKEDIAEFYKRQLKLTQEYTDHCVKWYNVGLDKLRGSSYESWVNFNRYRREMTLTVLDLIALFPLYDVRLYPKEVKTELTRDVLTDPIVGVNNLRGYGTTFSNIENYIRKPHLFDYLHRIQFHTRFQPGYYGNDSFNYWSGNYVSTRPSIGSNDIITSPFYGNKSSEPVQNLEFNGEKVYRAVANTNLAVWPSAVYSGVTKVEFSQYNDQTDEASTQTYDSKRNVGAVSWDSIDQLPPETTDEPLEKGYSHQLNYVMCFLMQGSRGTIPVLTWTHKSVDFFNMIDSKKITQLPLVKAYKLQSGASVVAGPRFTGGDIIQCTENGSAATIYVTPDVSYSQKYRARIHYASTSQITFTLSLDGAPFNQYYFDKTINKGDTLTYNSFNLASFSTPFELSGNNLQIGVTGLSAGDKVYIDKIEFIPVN

NC(=O)C1=CN([C@@H]2O[C@H](COP(=O)(O)OP(=O)(O)OC[C@H]3O[C@@H](n4cnc5c(N)ncnc54)[C@H](O)[C@@H]3O)[C@@H](O)[C@H]2O)C=CC1 [NADH]
amount of NADH bound: 6 ± 2 µmol/g
